In US20240382483A1, “HETEROCYCLIC EGFR INHIBITORS FOR USE IN THE TREATMENT OF CANCER” (Blueprint Medicines Corporation, priority 2021, published 2024):
Where two headings read alike, the source gives them in different places.

How the values were obtained:
[1] = target: T1, intracellular phosphorylation of EGFR in NCI-H1975 cell line that harbors the EGFR L858R T790M mutations (Homo sapiens, UniProt P00533, L858R/T790M); test: NCI-H1975 pEGFR AlphaLISA assay; assay type: cell-based; details: NCI-H1975 cells (EGFR L858R T790M), p-EGFR (Tyr1068), 4-5 hours incubation
T1 construct: NCI-H1975 cell line that harbors the EGFR L858R T790M mutations (ATCC, CRL-5908); host or cells: NCI-H1975
T1 sequence (P00533 25-1210 T790M/L858R): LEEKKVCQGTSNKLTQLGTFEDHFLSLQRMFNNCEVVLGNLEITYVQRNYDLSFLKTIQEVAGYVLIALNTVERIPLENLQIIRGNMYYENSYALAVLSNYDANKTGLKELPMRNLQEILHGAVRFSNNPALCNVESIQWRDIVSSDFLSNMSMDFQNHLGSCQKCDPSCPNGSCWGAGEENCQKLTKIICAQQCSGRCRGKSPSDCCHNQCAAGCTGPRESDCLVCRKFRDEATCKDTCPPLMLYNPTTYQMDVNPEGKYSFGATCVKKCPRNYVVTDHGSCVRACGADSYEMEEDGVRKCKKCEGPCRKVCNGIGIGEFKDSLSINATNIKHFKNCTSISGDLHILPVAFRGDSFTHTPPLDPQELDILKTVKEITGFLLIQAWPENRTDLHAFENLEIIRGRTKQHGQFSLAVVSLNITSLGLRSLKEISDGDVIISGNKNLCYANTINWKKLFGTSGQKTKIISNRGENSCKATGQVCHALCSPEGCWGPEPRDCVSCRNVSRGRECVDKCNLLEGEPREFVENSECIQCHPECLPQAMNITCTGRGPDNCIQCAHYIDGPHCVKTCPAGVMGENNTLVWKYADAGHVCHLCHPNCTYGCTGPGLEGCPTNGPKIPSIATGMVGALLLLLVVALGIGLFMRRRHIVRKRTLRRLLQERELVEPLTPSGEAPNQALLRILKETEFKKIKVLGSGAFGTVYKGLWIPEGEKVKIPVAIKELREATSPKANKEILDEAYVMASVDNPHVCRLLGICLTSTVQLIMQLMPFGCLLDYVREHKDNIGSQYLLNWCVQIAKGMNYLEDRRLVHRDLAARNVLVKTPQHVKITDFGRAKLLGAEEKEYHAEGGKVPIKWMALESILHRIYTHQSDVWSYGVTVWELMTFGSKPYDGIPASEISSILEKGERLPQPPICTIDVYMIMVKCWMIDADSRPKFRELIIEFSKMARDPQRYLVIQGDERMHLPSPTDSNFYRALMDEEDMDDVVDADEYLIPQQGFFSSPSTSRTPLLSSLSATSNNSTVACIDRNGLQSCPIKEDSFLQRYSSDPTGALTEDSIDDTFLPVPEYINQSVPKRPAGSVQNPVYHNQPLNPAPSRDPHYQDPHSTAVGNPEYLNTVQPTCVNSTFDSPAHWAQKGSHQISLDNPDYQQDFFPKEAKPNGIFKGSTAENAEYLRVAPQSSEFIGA
Method: On the next day, the test compounds and DMSO control were added into H1975 cell plate followed by incubation at 37C/5% CO2 for 4-5 hours. […] Then 5 μL of a donor bead mix was added to each well followed by overnight incubation at room temperature in dark. On the next day, the plate was read at a compatible plate reader to obtain pEGFR signal. Percent of pEGFR inhibition was plotted against log concentration of compounds to generate IC50 values.

EGFR (L858R T790M C797S) = target: T2, EGFR (L858R T790M C797S) (Homo sapiens, UniProt P00533, C797S/L858R/T790M); test: Biochemical EGFR inhibition assay (Caliper mobility shift), EGFR LRTMCS; details: LRTMCS (PH) IC50 (nM) @ 1 mM ATP (Num), EGFR LRTMCS mutant
T2 construct: purchased SignalChem E10-122VG
T2 sequence (P00533 25-1210 T790M/C797S/L858R): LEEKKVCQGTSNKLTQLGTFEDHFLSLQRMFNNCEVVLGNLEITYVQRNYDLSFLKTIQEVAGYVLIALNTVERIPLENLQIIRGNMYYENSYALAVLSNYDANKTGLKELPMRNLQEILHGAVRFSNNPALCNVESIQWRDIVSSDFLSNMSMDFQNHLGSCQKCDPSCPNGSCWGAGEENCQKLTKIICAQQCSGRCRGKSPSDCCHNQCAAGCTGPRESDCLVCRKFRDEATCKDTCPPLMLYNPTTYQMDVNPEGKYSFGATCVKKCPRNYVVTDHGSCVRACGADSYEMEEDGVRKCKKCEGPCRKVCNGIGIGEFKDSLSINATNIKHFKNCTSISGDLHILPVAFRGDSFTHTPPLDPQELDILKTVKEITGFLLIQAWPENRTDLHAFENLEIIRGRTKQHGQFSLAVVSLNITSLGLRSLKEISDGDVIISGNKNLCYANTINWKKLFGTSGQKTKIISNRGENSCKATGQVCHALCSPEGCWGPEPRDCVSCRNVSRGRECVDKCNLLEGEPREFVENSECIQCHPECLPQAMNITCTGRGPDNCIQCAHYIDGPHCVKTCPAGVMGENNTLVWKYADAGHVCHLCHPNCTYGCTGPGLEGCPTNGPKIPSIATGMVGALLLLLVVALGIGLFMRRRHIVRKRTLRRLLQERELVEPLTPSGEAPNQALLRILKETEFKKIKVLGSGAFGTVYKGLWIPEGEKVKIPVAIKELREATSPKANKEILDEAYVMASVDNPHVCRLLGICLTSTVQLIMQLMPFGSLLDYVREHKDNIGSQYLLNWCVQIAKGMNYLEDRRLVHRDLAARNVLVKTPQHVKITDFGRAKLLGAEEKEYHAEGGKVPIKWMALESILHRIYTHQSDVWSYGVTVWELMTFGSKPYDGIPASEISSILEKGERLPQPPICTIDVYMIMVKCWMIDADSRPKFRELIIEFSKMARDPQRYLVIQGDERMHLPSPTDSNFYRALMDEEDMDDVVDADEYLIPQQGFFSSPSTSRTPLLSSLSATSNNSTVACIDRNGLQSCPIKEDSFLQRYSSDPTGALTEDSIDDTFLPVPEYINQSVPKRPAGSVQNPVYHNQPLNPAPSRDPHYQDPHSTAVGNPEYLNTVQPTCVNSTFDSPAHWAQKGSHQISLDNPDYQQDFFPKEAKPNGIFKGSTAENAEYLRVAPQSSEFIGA
Summary of the method: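 Apparent IC50s were derived by plotting percent activity against the log of compound concentration. Activity was measured as phosphopeptide electrophoretically separated from substrate, after reactions at room temperature reached 10% to 20% phosphorylation and were halted with 35 mM EDTA.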

[2] = read-out: Ext pEGFR H1975 GMean IC50 (nM) Protocol: @Pharmaron AlphaLISA (Num)

Row | Compound | IC50 [1, 2] [nM] | IC50 (EGFR (L858R T790M C797S)) [nM] | IC50 ([1]; Ext pEGFR H1975 GMean IC50 (nM) Protocol: @Pharmaron AlphaLISA (Num)) [nM]
1 | CC(=O)NCC1CCN1c1ncc(C(C)C)c2cc(Nc3ccnc(N4CC[C@@H](O)[C@@](C)(F)C4)n3)ncc12 (stereo partly drawn) [Example 70, N-((1-(6-((2-((3S,4R)-3-fluoro-4-hydroxy-3-methylpiperidin-1-yl)pyrimidin-4-yl)amino)-4-isopropyl-2,7-naphthyridin-1-yl)azetidin-2-yl)methyl)acetamide] | > 50 | 15 to 20 | –
2 | COC1CN(c2ccc([C@@H](C)CO)c3cc(Nc4ccnc(N5CC[C@@H](O)[C@@](C)(F)C5)n4)ncc23)C1 (single isomer, unassigned) [Example 180, (3S,4R)-3-fluoro-1-(4-((5-((R)-1-hydroxypropan-2-yl)-8-(3-methoxyazetidin-1-yl)isoquinolin-3-yl)amino)pyrimidin-2-yl)-3-methylpiperidin-4-ol or (3S,4R)-3-fluoro-1-(4-((5-((S)-1-hydroxypropan-2-yl)-8-(3-methoxyazetidin-1-yl)isoquinolin-3-yl)amino)pyrimidin-2-yl)-3-methylpiperidin-4-ol] | > 50 | 30 to 100 | –
3 | CNC[C@@H]1CCCN1c1ncc(C(C)C)c2cc(Nc3ccnc(N4CC[C@@H](O)[C@@](C)(F)C4)n3)ncc12 [Example 197, (3S,4R)-3-fluoro-1-(4-((5-isopropyl-8-((S)-2-((methylamino)methyl)pyrrolidin-1-yl)-2,7-naphthyridin-3-yl)amino)pyrimidin-2-yl)-3-methylpiperidin-4-ol] | 30 to 50 | < 15 | –
4 | CC(C)c1cnc(N2C[C@H](O)[C@H]2C)c2cnc(Nc3ccnc(N4CC[C@@](C)(O)[C@@H](F)C4)n3)cc12 (single isomer, unassigned) [Example 173, (3S,4R)-3-fluoro-1-(4-((8-((2R,3S)-3-hydroxy-2-methylazetidin-1-yl)-5-isopropyl-2,7-naphthyridin-3-yl)amino)pyrimidin-2-yl)-4-methylpiperidin-4-ol or (3R,4S)-3-fluoro-1-(4-((8-((2R,3S)-3-hydroxy-2-methylazetidin-1-yl)-5-isopropyl-2,7-naphthyridin-3-yl)amino)pyrimidin-2-yl)-4-methylpiperidin-4-ol] | 30 to 50 | < 15 | –
5 | CC(C)c1cnc(N2C[C@H](O)[C@H]2C)c2cnc(Nc3ccnc(N4C[C@H](F)[C@H](O)[C@](C)(F)C4)n3)cc12 (single isomer, unassigned) [Example 134, (3R,4S,5S)-3,5-difluoro-1-(4-((8-((2R,3S)-3-hydroxy-2-methylazetidin-1-yl)-5-isopropyl-2,7-naphthyridin-3-yl)amino)pyrimidin-2-yl)-3-methylpiperidin-4-ol or (3S,4R,5R)-3,5-difluoro-1-(4-((8-((2R,3S)-3-hydroxy-2-methylazetidin-1-yl)-5-isopropyl-2,7-naphthyridin-3-yl)amino)pyrimidin-2-yl)-3-methylpiperidin-4-ol] | > 50 | 30 to 100 | –
6 | C[C@H](CO)c1ncc(N2CC[C@H]2C)c2cnc(Nc3ccnc(N4CC[C@@H](O)[C@@](C)(F)C4)n3)cc12 (single isomer, unassigned) [Example 178, (3S,4R)-3-fluoro-1-(4-((5-((S)-1-hydroxypropan-2-yl)-8-((R)-2-methylazetidin-1-yl)-2,6-naphthyridin-3-yl)amino)pyrimidin-2-yl)-3-methylpiperidin-4-ol or (3S,4R)-3-fluoro-1-(4-((5-((R)-1-hydroxypropan-2-yl)-8-((R)-2-methylazetidin-1-yl)-2,6-naphthyridin-3-yl)amino)pyrimidin-2-yl)-3-methylpiperidin-4-ol] | > 50 | 20 to 30 | –
7 | CC(C)c1cnc(N2CCCC2)c2cnc(Nc3ccnc(N4CC[C@@H](O)[C@@](C)(F)C4)n3)cc12 [Example 45, (3S,4R)-3-fluoro-1-(4-((5-isopropyl-8-(pyrrolidin-1-yl)-2,7-naphthyridin-3-yl)amino)pyrimidin-2-yl)-3-methylpiperidin-4-ol] | > 50 | 20 to 30 | –
8 | COP(=O)(CC1CN(c2ncc(C(C)C)c3cc(Nc4ccnc(N5CC[C@@H](O)[C@@](C)(F)C5)n4)ncc23)C1)OC [Example 96, dimethyl ((1-(6-((2-((3S,4R)-3-fluoro-4-hydroxy-3-methylpiperidin-1-yl)pyrimidin-4-yl)amino)-4-isopropyl-2,7-naphthyridin-1-yl)azetidin-3-yl)methyl)phosphonate] | – | 20 to 30 | 20 to 30
9 | CC(C)c1cnc(N2C[C@H](OC(F)F)[C@H]2C)c2cnc(Nc3ccnc(N4CC[C@@H](O)[C@@](C)(F)C4)n3)cc12 [Example 109, (3S,4R)-1-(4-((8-((2R,3S)-3-(difluoromethoxy)-2-methylazetidin-1-yl)-5-isopropyl-2,7-naphthyridin-3-yl)amino)pyrimidin-2-yl)-3-fluoro-3-methylpiperidin-4-ol] | 10 to 20 | 20 to 30 | –
10 | CC(C)c1cnc(N2C[C@@H](F)[C@@H]2C)c2cnc(Nc3ccnc(N4CC[C@@H](O)[C@@](C)(F)C4)n3)cc12 (single isomer, unassigned) [Example 34, (3S,4R)-3-fluoro-1-(4-((8-((2S,3R)-3-fluoro-2-methylazetidin-1-yl)-5-isopropyl-2,7-naphthyridin-3-yl)amino)pyrimidin-2-yl)-3-methylpiperidin-4-ol or (3S,4R)-3-fluoro-1-(4-((8-((2R,3S)-3-fluoro-2-methylazetidin-1-yl)-5-isopropyl-2,7-naphthyridin-3-yl)amino)pyrimidin-2-yl)-3-methylpiperidin-4-ol] | > 50 | < 15 | –
11 | CC(C)c1ccc(N2CC(C)(c3nnco3)C2)c2cnc(Nc3ccnc(N4CC[C@@H](O)[C@@](C)(F)C4)n3)cc12 [Example 113, (3S,4R)-3-fluoro-1-(4-((5-isopropyl-8-(3-methyl-3-(1,3,4-oxadiazol-2-yl)azetidin-1-yl)isoquinolin-3-yl)amino)pyrimidin-2-yl)-3-methylpiperidin-4-ol] | 10 to 20 | 20 to 30 | –
12 | CC(C)c1cnc(N2CC[C@]23CCN(C)C3)c2cnc(Nc3ccnc(N4CC[C@@H](O)[C@@](C)(F)C4)n3)cc12 (single isomer, unassigned) [Example 198, (3S,4R)-3-fluoro-1-(4-((5-isopropyl-8-((S)-6-methyl-1,6-diazaspiro[3.4]octan-1-yl)-2,7-naphthyridin-3-yl)amino)pyrimidin-2-yl)-3-methylpiperidin-4-ol or (3S,4R)-3-fluoro-1-(4-((5-isopropyl-8-((R)-6-methyl-1,6-diazaspiro[3.4]octan-1-yl)-2,7-naphthyridin-3-yl)amino)pyrimidin-2-yl)-3-methylpiperidin-4-ol] | 30 to 50 | 15 to 20 | –
13 | CC(C)c1cnc(N2CC(O)(CC#N)C2)c2cnc(Nc3ccnc(N4CC[C@@H](O)[C@@](C)(F)C4)n3)cc12 [Example 72, 2-(1-(6-((2-((3S,4R)-3-fluoro-4-hydroxy-3-methylpiperidin-1-yl)pyrimidin-4-yl)amino)-4-isopropyl-2,7-naphthyridin-1-yl)-3-hydroxyazetidin-3-yl)acetonitrile] | > 50 | 15 to 20 | –
14 | COC[C@@H](C)c1cnc(N2CC[C@H]2C)c2cnc(Nc3ccnc(N4CC[C@@H](O)[C@@](C)(F)C4)n3)cc12 (single isomer, unassigned) [Example 215, (3S,4R)-3-fluoro-1-(4-((5-((S)-1-methoxypropan-2-yl)-8-((R)-2-methylazetidin-1-yl)-2,7-naphthyridin-3-yl)amino)pyrimidin-2-yl)-3-methylpiperidin-4-ol or (3S,4R)-3-fluoro-1-(4-((5-((R)-1-methoxypropan-2-yl)-8-((R)-2-methylazetidin-1-yl)-2,7-naphthyridin-3-yl)amino)pyrimidin-2-yl)-3-methylpiperidin-4-ol] | 30 to 50 | < 15 | –
15 | CC(C)c1ncc(-c2cnn(C)c2)c2cnc(Nc3ccnc(N4CC[C@@H](O)[C@@](C)(F)C4)n3)cc12 [Example 14, (3S,4R)-3-fluoro-1-(4-((5-isopropyl-8-(1-methyl-1H-pyrazol-4-yl)-2,6-naphthyridin-3-yl)amino)pyrimidin-2-yl)-3-methylpiperidin-4-ol] | > 50 | < 15 | –
16 | Cc1c(-c2ncc(C(C)C)c3cc(Nc4ccnc(N5CC[C@@H](O)[C@@](C)(F)C5)n4)ncc23)nnn1C [Example 17, (3S,4R)-1-(4-((8-(1,5-dimethyl-1H-1,2,3-triazol-4-yl)-5-isopropyl-2,7-naphthyridin-3-yl)amino)pyrimidin-2-yl)-3-fluoro-3-methylpiperidin-4-ol] | 10 to 20 | < 15 | –
17 | CC(C)c1cnc(N2CC[C@H]2[C@@H](C)O)c2cnc(Nc3ccnc(N4CC[C@@H](O)[C@@](C)(F)C4)n3)cc12 (single isomer, unassigned) [Example 65, (3S,4R)-3-fluoro-1-(4-((8-((S)-2-((R)-1-hydroxyethyl)azetidin-1-yl)-5-isopropyl-2,7-naphthyridin-3-yl)amino)pyrimidin-2-yl)-3-methylpiperidin-4-ol or (3S,4R)-3-fluoro-1-(4-((8-((S)-2-((S)-1-hydroxyethyl)azetidin-1-yl)-5-isopropyl-2,7-naphthyridin-3-yl)amino)pyrimidin-2-yl)-3-methylpiperidin-4-ol] | 20 to 30 | < 15 | –
